Test results taken from publication PMC11778240, “Synthesis and preclinical evaluation of tigilanol tiglate analogs as latency-reversing agents for the eradication of HIV” (Science Advances, 2025).

Key:
[1] = test system: mast cell tumors; details: mast cell tumors in canines; cited from earlier work
[2] = test system: tumor necrosis factor–α; assay: TNF-α ELISA, A549 cells; type: cell-based, Human; details: for TNF-α (ELISA): 24 hours, lowest detectable limit 3.5 pg/ml
Description: The Anti-Human IL-8 pre-coated 96-well Strip Microplate and Anti-Human TNF-α pre-coated 96-well Strip Microplate were each washed 4 times by hand. With each wash, at least 300 μL of 1X Wash Buffer was added per well and aspirated, and any residual buffer was removed by blotting the plate on an absorbent paper towel. Following this wash cycle, 50 μL of Assay Buffer A was added to each well that would ultimately contain sample or standard. To rigorously ensure no cellular debris was left in the analyte, an ad ditional centrifugation step was performed (1800 rpm for 3 minutes) before transferring 50 μL of sample or standard dilutions to the appropriate wells.
Adhesive plate sealers were utilized to cover the plates, prevent contamination, and avoid sample evaporation after which each plate was placed on a cell shaker and allowed to shake at room temperature at 200 rpm for 2 hours. Following incubation, the contents of each plate were discarded and subsequently washed by hand 4 times with 1X Wash Buffer, as previo usly reported. […]

[3] = test system: interleukin-8; assay: IL-8 ELISA, A549 cells; type: cell-based, Human; details: 24 hours
Description: Because SUW402 and SUW431 are potent activators of NF-κB, we used an enzyme-linked immunosorbent assay to measure their ability to up-regulate inflammatory cytokine production (tumor necrosis factor–α and interleukin-8). We stimulated A549 cells with SUW402 and SUW431 at the same concentrations used in the NF-κB activation assay: 500 and 50 nM (figs. S1 and S2). […] At 500 or 50 nM, both SUW402 and SUW431 produced only modest levels of interleukin-8, a 15 to 25% increase relative to the DMSO negative control.
Enzyme Linked Immunosorbent Assay (ELISA) for SUW402 and SUW431 mediated IL-8 and […]
In efforts to replicate the conditions of the in vitro NF -κB assay, 5 x 10^4 A549 cells were plated per well on Corning® 96-well Clear Round Bottom TC-treated Microplates in 180 μl of pre-warmed DMEM (4.5 g/L glucose, 10% FBS, and 1% Pen-Strep-Glutamine (100 X, 50 mg/mL)).
Following incubation at 37 °C in 5% CO2 for approximately 24 hours to allow for cell adherence, 1.8 μl of either SUW402 or SUW431 were added in triplicate to their respective wells to achieve a final compound concentration of either 50 nM or 500 nM, the two concentrations tested in the NF-κB assay. 24 hours after compound addition, the microplate containing cells treated with compound was spun at 1800 rpm for 3 minutes to allow for pelleting of cells and other debris before 150 μL of cellular supernatant was aspirated and transferred to a new Corning® 96 -well Clear Round Bottom TC-treated Microplate. Note that if the supernatant is not meant to be immediately analyzed, the microplate containing cellular supernatant should be paraf ilm, wrapped, and stored at -80 °C. Careful attention should be paid to avoiding freeze-thaw cycles. To quantify cytokine secretion within samples, dilutions were performed using Assay Buffer A included in the LEGEND MAX™ Human IL-8 ELISA Kit (Cat # 431507) and LEGEND MAX™ Human TNF-α ELISA Kit (Cat # 430207), respectively.
Immediately before running the assay, reagents were allowed to come to room temperature and diluted. Note that if the supernatant is frozen, it should be removed at this time and allowed to thaw. The 1X Wash Buffer was prepared by diluting the 20X Wash Buf fer with Invitrogen™ UltraPure™ DNase/RNase-Free Distilled Water. The lyophilized human IL-8 and TNF-α standards were reconstituted by adding the appropriate volume of Assay Buffer A to prepare the 20 ng/mL standard stock solutions. The reconstituted stand ards were allowed to sit at room temperature for 20 minutes before being gently vortexed to ensure complete mixing. To generate a standard curve for each cytokine, 500 μL of a 1,000 pg/mL top standard was prepared after which six two -fold serial dilutions of the top standard were performed in 1.7 mL microcentrifuge tubes using Assay […]

Row | SMILES | cure rate [1] [%] | TNF-α (ELISA) ([2]; 50 nM) [pg/mL] | TNF-α (ELISA) ([2]; 500 nM) [pg/mL] | tumor necrosis factor–α production in words ([2]; 500 and 50 nM) | IL-8 (ELISA) ([3]; 50 nM) [pg/mL] | IL-8 (ELISA) ([3]; 500 nM) [pg/mL]
1 | C/C=C(\C)C(=O)O[C@@H]1[C@@H](C)[C@@]2(O)[C@H]([C@@H]3C(C)(C)[C@]13OC(=O)[C@@H](C)CC)[C@@H]1O[C@]1(CO)[C@@H](O)[C@]1(O)C(=O)C(C)=C[C@H]12 [EBC-46, Tigilanol tiglate] | ≤ 88 |  |  |  |  | 
2 | C/C=C(\C)C(=O)O[C@@H]1[C@@H](C)[C@@]2(O)[C@@H](C=C(CO)C[C@]3(O)C(=O)C(C)=C[C@@H]23)[C@@H]2C(C)(C)[C@]12OC(=O)[C@@H](C)CC [SUW402] |  | < 3.5 | < 3.5 | did not produce detectable levels of tumor necrosis factor–α at either concentration | 3352 | 3106
3 | C/C=C(\C)C(=O)O[C@@H]1[C@@H](C)[C@@]2(O)[C@H]([C@@H]3C(C)(C)[C@]13OC(=O)Cc1cccc3ccccc13)[C@@H]1O[C@]1(CO)[C@@H](O)[C@]1(O)C(=O)C(C)=C[C@H]12 [SUW431] |  | 4.4 | 8.4 |  | 3369 | 3232
